What was measured:
myelin = assay: Myelin status in spinal cords of EAE mice (immunofluorescent staining for MBP, Western for MBP and PLP); type: in vivo, C57BL/6 mice; conditions: 1 mg/kg/day, N6022 vs FTY720
Description: Female C57BL/6 mice of 8-12 weeks of age, purchased from Jackson Laboratory, were provided with food and water ad libitum and were kept in pathogen free animal care facility of Medical University of South Carolina (MUSC) throughout the study. All procedures were conducted in accordance with accepted standards of humane care as approved by the Institutional Animal Care and Use Committee (Approved number: AR #1644). EAE was induced as described previously (Nath et al., 2009). Briefly, mice were immunized subcutaneously in the flank regions with MOG35-55 peptide (MOG; 200 μg; Peptide International) emulsified (1:1) in 100 ul complete Freund's adjuvant (CFA) on day 0 and day 7. Additionally, 300 ng of Pertussis toxin (Sigma-Aldrich, St. Louis, Mo.) was given on day 0 and day 2 by i.p. injection. […] Clinical signs of EAE were scored by examiners blinded to experimental treatments using the following scale: 0=no clinical signs of disease; 1=piloerection and sluggish; 2=limp tail (ataxia); 2.5=ataxia with partial hind limb paralysis; 3=full paralysis of hind limb; 3.5=full paralysis of hind limb with paralysis of one fore limb; 4=full paralysis of two limbs; 4.5=moribund stage; 5=death. […]
Tissue samples were embedded in paraffin block and sectioned transversely (5 μm-thick). […] For the quantitation of infiltrates, the digital images were analyzed by ImageJ (NIH, Bethesda, Md.). […]

diabetic mice = assay: Radial arm maze in STZ induced diabetic mice; type: in vivo
Description: Male laca mice weighing between 28-32 g were procured from the Central Animal House, Panjab University, Chandigarh. The animals were acclimatized and were fed with standard pellet diet and water ad libitum. The experimental protocols were approved by the Institutional Ethics Committee and were conducted according to Indian National Science Academy (INSA) guidelines for the use and care of experimental animals. The animals were divided into four groups: (i) Control animals received phosphate buffered saline (PBS) throughout the study; (ii) Control+GSNO animals were administered with GSNO 100 μg/kg body weight orally, dissolved in PBS after every 24 h for 8 weeks; (iii) Diabetic animals were injected with STZ at a dose of 40 mg/kg body weight intraperitoneally for 5 days dissolved in 0.1 mol/L citrate buffer, pH 4.5 and Diabetic+GSNO mice were administered GSNO 100 μg/kg body weight orally dissolved in PBS after every 24 h for 8 weeks after the induction of diabetes. Animals were assessed weekly for development of diabetic encephalopathy in terms of memory deficits. All experimental procedures were done on mice at the end of study. Radial arm maze was used to assess specific learning and memory in the radial arm maze (Veena et al., 2009). Its apparatus consisted of equally spaced arms (35×9×5 cm) radiating from an octagonal central platform, and the maze was kept 80 cm elevated from the ground. Prior to the acquisition, all the arms were baited and mice were allowed to explore the maze for 10 min and were subjected to two such acclimatization sessions on consecutive days. […] An arm choice was recorded when the animal reached the end of an arm. An arm entry was counted when all four paws entered the arm. […] After acquisition period, animals were evaluated for retention of the task. […] The data were analyzed for the number of reference memory errors (exploring an arm never baited), working memory errors (exploring a baited arm already visited), total number of errors, memory retention and % correct choice.

[1] = diabetic mice, GSNO 100 μg/kg body weight orally daily for 8 weeks, vs diabetic group

Row | SMILES | protection against myelin loss in the spinal cords (myelin) | increase in the percentage of correct choices (diabetic mice; [1]) | lowered number of errors (diabetic mice; [1]) | radial arm maze parameters of GSNO-treated control mice (diabetic mice; non-diabetic control mice, GSNO 100 μg/kg orally for 8 weeks, vs control mice)
1 | Cc1cc(C(N)=O)ccc1-n1c(CCC(=O)O)ccc1-c1ccc(-n2ccnc2)cc1 [N6022, reference compound] | protects against the myelin loss in the spinal cords of EAE mice greater than FTY720 treatment |  |  | 
2 | N[C@@H](CCC(=O)N[C@@H](CSN=O)C(=O)NCC(=O)O)C(=O)O [GSNO, S-nitrosoglutathione] |  | 30% | 44% | not significantly different from control mice

— patent publication US10925858B2, “S-nitrosoglutathione (GSNO) and GSNO reductase inhibitors for use in therapy” (MUSC FOUNDATION FOR RESEARCH DEVELOPMENT, priority 2017, dated 2021)
